The values below come from patent US9265774B2, “Methods, compounds and pharmaceutical compositions for treating anxiety and mood disorders” (New York University, priority 2011, dated 2016).

The structures appear in SMILES notation. Like-named read-outs stand apart in the source and are kept apart here.

For data set [1], the system named is home cage exploration in handling-stressed mice. Put plainly: Home cage activity after handling and injection stress. In kind it is in vivo. The method, then: FIG. 15 depicts the effect of acute i.p. dp6FNE (1 mg/kg) or cirazoline (0.1 mg/kg), (N=1), on home cage activity in terms of rearing and ambulation, Veh (N=12).
6FNE has a more rapid and/or greater antidepressant effect than either of these agonists because 6FNE is the only known selective α-agonist that has full efficacy at all brain α-adrenoceptors and 6FNE works within minutes (Stone, et al. 2011) whereas cirazoline was given to mice over several months prior to testing in one model (forced swim test) in the above experiment by Doze et al, 2009. […] (Stone, E A, Lin Y, Quartermain, D, Unpublished results)
It is known that peripheral administration of α1-agonists without phentolamine impairs exploratory behavior in the open field (Yang, et al., J Pharmacol exp Ther 1990; 255: 1064-1070).

In another data set the test system is PVH Fos expression. Put plainly: Fos expression in the PVH, RFS model, corticosterone in the drinking water. It counts as in vivo, mice. The settings on record: versus veh. The text has this: (§1) GR agonists such as corticosterone and dexamethasone are well known to produce selective inhibition of the neural activity of parvocellular PVH neurons at low doses (Keller-Wood et al., Endo Rev (1982) 5: 1-24; Dallman et al., Ann N Y Acad Sci 91987) 512: 402-414). This effect was shown in a previous experiment on the effects of corticosterone in the drinking water on Fos expression in the PVH or piriform cortex of mice subjected to the RFS model (Stone et al., eur J Pharmacol (2007) In Press). The animals were swum a total of 3 times and on the night prior to the 3rd swim given corticosterone at 12.5, 25 or 50 μg/ml in the drinking water. These concentrations produced nighttime intakes of 4.6, 10.7 and 14.2 mg/kg. The mice were given the 3rd and final swim the following morning, 0800-1000 h, and were anesthetized and perfused 70 min after the start of the swim for immunohistochemical assay of Fos in the PVH and in the piriform cortex, a control region that supports positively motivated behavior (Carr et al., Neuropsychopharmacology (2010) 35: 752-763; Stone et al., Neurosci Biobehav Revs (2008a) 32: 508-524).

In data set [2] the test system is Fos expression in the piriform cortex. Put plainly: Fos expression in the piriform cortex, RFS model, corticosterone in the drinking water. It counts as in vivo, mice. As to conditions: versus veh.
Description: as §1

The subject of data set [3] is model of chronic depression in mice (repeated forced swim). As to conditions: for acute antidepressant (anti-immobility) effect in the RFS: single acute i.p. administration minutes before the swim, low doses, prazosin 0.2 mg/kg present. The source says: We administered the pro-drugs shortly before one or more tests of antidepressant activity including reversal of immobility during tail suspension and forced swimming and attenuation of anhedonia produced by endotoxin administration. […] (Stone et al., Eur. J. Pharmacol. (2001) 420: 97-102) Because dp6FNE like all other antidepressants has an initial anorexic effect and acutely reduces the consumption of sweet solutions, in the test for anhedonia it was necessary to employ a non-nutritive hedonic behavior, FUST (sniffing of estrous female urine). […] (Stone et al., Neuropsychopharmacology (2011) 14: 319-331); Sun et al., J. Neurosci. Methods (2003) 126:35-40; Sun et al., Behavioral Pharmacology (2008) 19: 334-338).
Mice were swum for 15 min/d on 4 d and tested for the response to acute i.p dp6FNE (1 or 3 mg/kg) alone or in combination with 8-OHDPAT (0.05 mg/kg) and corticosterone (3 mg/kg) on the 5th and final swim (15 min after drug administration). […] Comparison groups receiving currently available antidepressants were treated acutely i.p. or chronically (14 d osmotic pumps) with either desmethylimipramine (DMI) (10 mg/kg), fluoxetine (5 mg/kg), escitalopram (5 mg/kg), bupropion (10 mg/kg) or ketamine (10 mg/kg).
Although corticosteroids are well known to produce depression (Gourley et al., Biol Psychiatry (2008) 64: 884-890), this occurs at high doses only. […] Mice were swum for 3 d and given either vehicle (0.8% ethanol) or corticosterone (12.5 μg/ml) in their drinking water.
As described in Example 4a, the cocktail was tested in a mouse model of chronic depression (RFS).

Data set [4] concerns open field behavior (locomotion and center square occupancy). Briefly: Open field motor activity and anxiety after capture and injection. It counts as in vivo, mice. The settings on record: corticosterone 12.5 μg/ml in drinking water (4.6 mg/kg). How it is done: To determine if the agonists had motor stimulating or sedative actions, mice were allowed to explore an open field undisturbed for 60 min and were then captured and injected i.p. with either vehicle or the full “cocktail” of the 3 […] (dp6FNE 1 mg/kg; 8-OHDPAT, 0.05 mg/kg; corticosterone, 3 mg/kg, praz, 0.2 mg/kg) before being replaced in the field for a final 15 min. The vehicle injection (praz present) reduced subsequent locomotion and time spent in the center of the field by −76.8±11.0% and −78.5±12.4%, respectively, from preceding levels, indicating an anxiogenic effect of the injection procedure. The injection of the “cocktail”, however, rescued both locomotion and center time to −12.9±1.9% and −25.3±6.9%, respectively, indicating a strong anti-anxiety effect with no motor stimulation or sedation (FIG. 9).
In addition to its antidepressant property, the cocktail is also effective in producing a significant antianxiety effect without sedation in these animals. The applicants have tested for this effect using an open field in which animals are placed and permitted to explore freely after which they are captured, restrained briefly for an ip. injection of saline and returned to the field for a final 15 min. […]

Data set [5] has as its system repeated open-space swim model. Put plainly: Repeated open-space (forced) swim test. It counts as in vivo, mice. As to conditions: for antidepressant activity in the repeated open-space forced swim test: intracerebral administration. The source says: (§2) The first test involves an acute stress-induced model of depression (Steru, et al., Psychopharmacology 1985; 85: 367-370) whereas the second, a more prolonged, chronic depression that is more akin to chronic human depression (Stone, et al., Pharmacol Biochem Behav 2008; 91: 190-195).

The subject of a further data set is Fos expression in the LC. Briefly: Fos expression in the LC during the RFS model. It counts as in vivo, mice. As to conditions: prazosin 0.2 mg/kg; vehicle animals compared with previous results without prazosin. How it is done: In the RFS study, mice were subjected to 4 daily 15 min swims as described above and were injected i.p. with either vehicle or dp6FNE (3 mg/kg) 15 min prior to the 5th swim. In the TST study, animals were injected similarly before a 6 min test. […] The animals were anesthetized and perfused for immuno-histochemistry 70 min after the start of the swim or tail suspension. Brains were processed as described previously for double-label immunofluorescent Fos/tyrosine hydroxylase staining of all sections through the LC and for single-label Fos staining through the full PVH (Stone et al., Brain Res (2009) 1291: 21-31). […] In the tail suspended mice the analogous reductions were 53.5±7.2% (LC) and 36.7±3.1 (PVH). […] These findings thus indicate that a dose of […] dp6FNE that has preferential inhibitory effects on the LC during depression exists.

Data set [6] concerns immobility in tail suspension test. Briefly: Tail suspension test (TST). As to conditions: intracerebral administration. It counts as in vivo, mice. The method, then:
In the RFS study, mice were subjected to 4 daily 15 min swims as described above and were injected i.p. with either vehicle or dp6FNE (3 mg/kg) 15 min prior to the 5th swim. In the TST study, animals were injected similarly before a 6 min test. […] The animals were anesthetized and perfused for immuno-histochemistry 70 min after the start of the swim or tail suspension. Brains were processed as described previously for double-label immunofluorescent Fos/tyrosine hydroxylase staining of all sections through the LC and for single-label Fos staining through the full PVH (Stone et al., Brain Res (2009) 1291: 21-31).
To determine if dp6FNE was active in a more traditional test of antidepressant activity, it was given as above 15 min prior to a tail suspension test.
as §2

For data set [7], the system named is locomotor behavior in an open field. Put plainly: Open field locomotor behavior after ivt. 6FNE or i.p. dp6FNE versus amphetamine. It counts as in vivo, mice. The method, then:
6FNE and dp6FNe were tested for their effects on motor activity by measuring locomotor behavior in an open field after either ivt. (6FNE) or i.p. injection (dp6fNE) in mice. These mice were compared to animals that were either non handled or received either a vehicle ivt injection or an i.p. injection of the stimulant, amphetamine (5 mg/kg). The results are shown in FIG. 6 and in (Stone, Lin Y, Sarfraz Y, and Quartermain D, 2011). […] Furthermore, the increase in activity after 6FNE was minor in comparison with the bona fide stimulant, amphetamine which produced a 10 fold increase. The small increase over the vehicle group therefore appears to be the result of a reduction of the stress caused by the handling and restraint for the ivt. injection which is in agreement with the reduced activation of brain stress circuits discussed above. This interpretation was supported by an examination of the time in the center or risky area of the field spent by the various groups. […] A slight reduction in motor behavior at the low doses (0.1-0.3 mg/kg) were, however, observed.

For data set [8] the following is noted: prazosin: at 0.2 mg/kg in mice; cited from earlier work.
For data set [9] the following is noted: oral; cited from earlier work.
[10] abbreviates: corticosterone 25 μg/ml in drinking water, nighttime intake 10.7 mg/kg.
Where [11] appears, read: corticosterone 50 μg/ml in drinking water, nighttime intake 14.2 mg/kg.
Setting [12] is: corticosterone 12.5 μg/ml in drinking water, nighttime intake 4.6 mg/kg, mice swum for 3 d, versus vehicle.

Turning to `c1ccc(C2CC2)c(OCC2=NCCN2)c1` [cirazoline], the “effect by itself on movement and motor behavior in the home cage” value in [1] (cirazoline i.p., unpublished results) is “pronounced inhibition of movement and motor behavior”. In addition, the “behavioral inhibition in the home cage following handling and injection stress” value in data set [1] (i.p., dp6FNE (1 mg/kg) in the presence of phentolamine, cirazoline (0.1 mg/kg)) was “not effective in reducing behavioral inhibition”.
In the case of `C[C@]12C[C@H](O)[C@H]3[C@@H](CCC4=CC(=O)CC[C@@]43C)[C@@H]1CC[C@@H]2C(=O)CO` [corticosterone], the “reduction of PVH Fos expression” value is on record as −51.7±17% in the data set with PVH Fos expression (corticosterone 12.5 μg/ml in drinking water, nighttime intake 4.6 mg/kg, 70 min after start of 3rd swim); −66.8±8.5% in the data set with PVH Fos expression (setting [10]); −63.7±11.0% in the data set on PVH Fos expression (setting [11]). Moreover, the “increase of Fos expression in the piriform cortex” value in [2] (corticosterone 12.5 μg/ml in drinking water, nighttime intake 4.6 mg/kg) is “+203.3±78.6%”; in data set [2] (setting [10]), “+175.3±53.9%”; in [2] (setting [11]), “+193.3±67.4%”. For the same molecule, the “increase of distance swum” value in [3] (setting [12]) is listed as “+107.7±15.8%”. Besides, the reduction in immobility in data set [3] (setting [12]) was −36.6±5.7%. The “acute antidepressant (anti-immobility) effect in the RFS” value was “rapid and effective preclinical antidepressant actions” in data set [3]; “immediate and effective antidepressant action” in data set [3] (listed as corticosteroid). For the same molecule, the open field locomotion entry in data set [4] is “No effect”.
With `CNCCCN1c2ccccc2CCc2ccccc21` [DMI, desmethylimipramine], the “acute effect in the repeated open-space swim test” value in data set [5] (acute i.p., dp6FNE at 1, 3 and 10 mg/kg given along with phentolamine 5 mg/kg i.p.) is recorded as “complete lack of effect”.
With `COc1cc2nc(N3CCN(C(=O)c4ccco4)CC3)nc(N)c2cc1OC` [prazosin], the “effect of the antagonist on LC or PVH Fos” value in the data set with Fos expression in the LC was “no effect”. For the same molecule, the “effect of receptor blockade on the antidepressant actions of dp6FNE in the RFS” value in [3] (high dose systemic prazosin or α2-antagonist atipamezole given with dp6FNE) was “significantly reversed the antidepressant actions of pro-drug in the RFS”.
`NCC(O)c1cc(O)c(O)cc1F` (stereo not drawn) [6FNE, 6-fluoronorepinephrine]: the “antidepressant activity in the tail suspension test” value in data set [6] is “equally effective”. For the same molecule, the “time in the center of the field” value in data set [7] (6FNE ivt. or dp6FNE i.p.) was “restored this behavior back to the level of the non-handled controls”. Further, the “effect on motor activity in the open field” value in [7] (mouse, in vivo, ip) is “no change in activity compared to the non-handled animals”. In addition, the “antidepressant activity in the repeated open-space forced swim test” value in data set [5] was “effective”. In addition, the “passage of the blood brain barrier” value in [8] is listed as “does not pass the blood brain barrier”.
Consider `C[C@@H]1C[C@H]2[C@@H]3CCC4=CC(=O)C=C[C@]4(C)[C@@]3(F)[C@@H](O)C[C@]2(C)[C@@]1(O)C(=O)COP(=O)(O)O` [dexamethasone sodium phosphate], for which the bioavailability result in [9] is given as “approximately 0.5”.
Regarding `CC(N)Cc1ccccc1` (stereo not drawn) [amphetamine], in [7] (amphetamine 5 mg/kg i.p.), the “increase in activity in the open field” value was 10 fold.
With `CCC1(c2cnc[nH]2)Cc2ccccc2C1` [atipamezole], the “effect of receptor blockade on the antidepressant actions of dp6FNE in the RFS” value in data set [3] (mouse, in vivo) is given as “significantly reversed the antidepressant actions of pro-drug in the RFS”.
Regarding `Cc1cccc([C@H](C)c2cnc[nH]2)c1C` [dexmedetomidine], the “antidepressant activity in the tail suspension test” value in [6] was “equally effective”. Besides, the “antidepressant activity in the repeated open-space forced swim test” value in [5] is reported as “only 6FNE was effective”.
On to `CNC1(c2ccccc2Cl)CCCCC1=O` (stereo not drawn) [ketamine], for which, in data set [3], the “acute antidepressant (anti-immobility) effect in the RFS” value is reported as “None of the currently available antidepressants that were tested, including ketamine, appeared acutely effective”.
